Measured values reported in patent US11046699B2, “Pyrazolo-pyrimidin-amino-cycloalkyl compounds and their therapeutic uses” (RAPT THERAPEUTICS, INC., priority 2018, dated 2021).
pIC50: −log10 of the molar value. Like-named read-outs stand apart in the source and are kept apart here.

Target: GCN2 (Homo sapiens, UniProt Q9P2K8)
Test: GCN2 enzymatic endpoint assay: phosphorylation of GFP-eIF2α measured by TR-FRET (Lanthascreen)
Format: biochemical
Method: The Enzymatic assay was run as an endpoint assay to quantify the activity of the serine/threonine GCN2 kinase by way of measuring phosphorylation of its natural substrate, eiF2α.
The enzymatic reaction was initiated by incubating with 2 μM ATP and 80 nM of GFP labeled eiF2a substrate at room temperature and then stopped after 90 minutes with EDTA. The amount of phosphorylated eIF2α is determined by TR-FRET (Lanthascreen). A terbium labeled antibody associates with the phosphorylated substrate resulting in an increased TR-FRET value. Activity was calculated as the ratio of the acceptor (fluorescein) signal at 520 nm wavelength to the donor (terbium) signal 495 nm. The amount of antibody that is bound to the tracer is directly proportional to the amount of phosphorylated substrate present, and in this manner, kinase activity can be detected and measured by an increase in the TR-FRET value.
Compound addition by D300
5 μL enzyme solution in assay buffer
5 μL substrate/ATP mixture in assay buffer
5 μL stop/detection mix in antibody dilution buffer

[1] = tested as described in Example 77, compound and/or hydrochloride, dihydrochloride or trifluoroacetic acid salt, read-out: IC 50 Activity
[2] = GCN2 biochemical IC50, 4 nM GCN2, 2 μM ATP, 80 nM GFP-eIF2α, 90 min RT, read-out: GCN2 activity

GCN2, sequence (Q9P2K8 whole entry): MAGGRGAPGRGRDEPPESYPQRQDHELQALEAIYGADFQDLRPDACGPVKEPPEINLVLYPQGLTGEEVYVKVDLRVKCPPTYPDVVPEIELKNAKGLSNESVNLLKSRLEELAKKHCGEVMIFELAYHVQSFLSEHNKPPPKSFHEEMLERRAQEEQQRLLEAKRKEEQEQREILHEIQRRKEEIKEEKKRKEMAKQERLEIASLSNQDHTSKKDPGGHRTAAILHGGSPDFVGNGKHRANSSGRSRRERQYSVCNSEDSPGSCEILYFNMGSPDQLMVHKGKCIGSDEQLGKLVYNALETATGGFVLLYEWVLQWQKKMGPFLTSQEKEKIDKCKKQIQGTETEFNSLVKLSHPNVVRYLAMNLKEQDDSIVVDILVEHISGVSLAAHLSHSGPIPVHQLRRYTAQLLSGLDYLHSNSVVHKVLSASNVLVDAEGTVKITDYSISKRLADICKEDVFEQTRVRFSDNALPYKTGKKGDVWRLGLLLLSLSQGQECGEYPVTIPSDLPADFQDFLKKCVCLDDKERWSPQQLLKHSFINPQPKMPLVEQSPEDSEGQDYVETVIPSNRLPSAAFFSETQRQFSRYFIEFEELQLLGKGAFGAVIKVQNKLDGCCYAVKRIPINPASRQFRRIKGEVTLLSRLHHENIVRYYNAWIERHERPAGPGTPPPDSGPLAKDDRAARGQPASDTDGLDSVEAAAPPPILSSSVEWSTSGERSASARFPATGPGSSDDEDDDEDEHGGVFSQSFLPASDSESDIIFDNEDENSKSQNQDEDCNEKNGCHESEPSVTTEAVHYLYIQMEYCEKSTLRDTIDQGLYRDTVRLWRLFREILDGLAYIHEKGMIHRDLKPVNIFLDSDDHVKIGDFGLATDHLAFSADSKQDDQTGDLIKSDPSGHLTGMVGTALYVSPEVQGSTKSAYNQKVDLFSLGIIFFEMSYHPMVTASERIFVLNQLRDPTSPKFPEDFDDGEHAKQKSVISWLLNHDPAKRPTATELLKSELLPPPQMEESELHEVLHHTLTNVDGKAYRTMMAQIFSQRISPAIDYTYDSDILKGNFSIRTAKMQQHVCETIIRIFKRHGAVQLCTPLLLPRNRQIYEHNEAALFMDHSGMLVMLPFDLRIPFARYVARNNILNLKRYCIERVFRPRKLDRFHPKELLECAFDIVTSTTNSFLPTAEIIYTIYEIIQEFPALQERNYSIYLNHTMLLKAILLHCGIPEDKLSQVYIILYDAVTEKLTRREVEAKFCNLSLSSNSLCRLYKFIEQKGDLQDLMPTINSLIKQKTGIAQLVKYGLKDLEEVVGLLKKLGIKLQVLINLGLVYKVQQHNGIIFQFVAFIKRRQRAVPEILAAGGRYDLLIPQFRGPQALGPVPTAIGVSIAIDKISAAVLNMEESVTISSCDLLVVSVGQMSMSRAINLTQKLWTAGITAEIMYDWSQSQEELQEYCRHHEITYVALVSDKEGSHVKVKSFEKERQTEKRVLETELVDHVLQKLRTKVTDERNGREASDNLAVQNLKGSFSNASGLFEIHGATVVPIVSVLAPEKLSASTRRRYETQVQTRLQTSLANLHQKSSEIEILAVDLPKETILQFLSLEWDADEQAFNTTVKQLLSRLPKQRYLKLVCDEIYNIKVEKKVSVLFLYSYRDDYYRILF

Structure (SMILES) | pIC50 [1] | pIC50 [2]
CNC(=O)[C@]1(C)CC[C@@H](Nc2ncc3c(Br)nn(-c4ccc5ncsc5c4)c3n2)C1 [(1R,3R)-3-[[1-(1,3-benzothiazol-6-yl)-3-bromo-pyrazolo[3,4-d]pyrimidin-6-yl]amino]-N,1-dimethyl-cyclopentane-carboxamide] | 6.70 to 7.60 | 
CNC(=O)[C@]1(C)CC[C@@H](Nc2ncc3c(Br)nn(-c4ccc5c(c4)CCCN5)c3n2)C1 [(1R,3R)-3-[[3-bromo-1-(1,2,3,4-tetra-hydroquinolin-6-yl)pyrazolo[3,4-d]pyrimidin-6-yl]amino]-N,1-dimethyl-cyclopentanecarboxamide] | 6.70 to 7.60 | 
COCCNC(=O)[C@]1(C)CC[C@@H](Nc2ncc3c(Br)nn(-c4ccc5ncccc5c4)c3n2)C1 [(1R,3R)-3-((3-bromo-1-(quinolin-6-yl)-1H-pyrazolo[3,4-d]pyrimidin-6-yl)amino)-N-(2-methoxyethyl)-1-methylcyclopentane-1-carboxamide] | 6.70 to 7.60 | 
CNC(=O)[C@]1(C)CC[C@@H](Nc2ncc3c(Br)nn(-c4ccc(C#N)c(CO)c4)c3n2)C1 [(1R,3R)-3-[[3-bromo-1-[4-cyano-3-(hydroxymethyl)phenyl]pyrazolo[3,4-d]pyrimidin-6-yl]amino]-N,1-dimethyl-cyclopentanecarboxamide] | 6.70 to 7.60 | 
CN1CCN(C(=O)[C@@H]2CC[C@@H](Nc3ncc4c(Br)nn(-c5cc(C(F)F)c6ncccc6c5)c4n3)C2)CC1=O [4-((1R,3R)-3-((3-bromo-1-(8-(difluoromethyl)quinolin-6-yl)-1H-pyrazolo[3,4-d]pyrimidin-6-yl)amino)cyclopentane-1-carbonyl)-1-methyl-piperazin-2-one] | 6.70 to 7.60 | 
O=C(Nc1cnn(C2CC2)c1)[C@@H]1CC[C@@H](Nc2ncc3c(Br)nn(-c4cc(F)c5ncccc5c4)c3n2)C1 [(1R,3R)-3-((3-bromo-1-(8-fluoroquinolin-6-yl)-1H-pyrazolo[3,4-d]pyrimidin-6-yl)amino)-N-(1-cyclopropyl-1H-pyrazol-4-yl)cyclopentane-1-carboxamide] | 6.30 to 6.70 | 
O=C(NCCc1cnc[nH]1)[C@@H]1CC[C@@H](Nc2ncc3c(Br)nn(-c4ccc5ncccc5c4)c3n2)C1 [(1R,3R)-N-(2-(1H-imidazol-5-yl)ethyl)-3-((3-bromo-1-(quinolin-6-yl)-1H-pyrazolo [3,4-d]pyrimidin-6-yl)amino)cyclopentane-1-carboxamide] | 6.30 to 6.70 | 
CNC(=O)C1(CC#N)CC[C@@H](Nc2ncc3c(Br)nn(-c4ccc(-c5nnc(C)s5)cc4)c3n2)C1 (some centres unmarked) | 6.70 to 7.60 | 
CNC(=O)[C@]1(C)CC[C@@H](Nc2ncc3c(Br)nn(-c4ccc5c(c4)c(=O)n(C)c(=O)n5C)c3n2)C1 | > 7.60 | 
C[C@@H]1CNC[C@H](C)N1C(=O)[C@@H]1CC[C@@H](Nc2ncc3c(Br)nn(-c4ccc5ncccc5c4)c3n2)C1 [((1R,3R)-3-((3-bromo-1-(quinolin-6-yl)-1H-pyrazolo[3,4-d]pyrimidin-6-yl)amino)cyclo-pentyl)((2R,6S)-2,6-dimethylpiperazin-1-yl)methanone] | > 7.60 | 
CNC(=O)[C@]1(C)CC[C@@H](Nc2ncc3c(Br)nn(-c4cc(NC(=O)CN)c5ncccc5c4)c3n2)C1 [(1R,3R)-3-[[1-[8-[(2-aminoacetyl)amino]-6-quinolyl]-3-bromo-pyrazolo[3,4-d]pyrimidin-6-yl]amino]-N,1-dimethyl-cyclopentanecarboxamide] | 6.70 to 7.60 | 
CCc1cc(-n2nc(Br)c3cnc(N[C@@H]4CC[C@@](C)(C(=O)NC)C4)nc32)ccc1-c1nnc(C)s1 | 6.70 to 7.60 | 
CNC(=O)[C@]1(C)CC[C@@H](Nc2ncc3c(Br)nn(-c4ccc(-c5nnc(C)s5)c(CCC#N)c4)c3n2)C1 [Example 49, (1R,3R)-3-((3-bromo-1-(3-(2-cyanoethyl)-4-(5-methyl-1,3,4-thiadiazol-2-yl)phenyl)-1H-pyrazolo[3,4-d]pyrimidin-6-yl)amino)-N,1-dimethylcyclopentane-1-carboxamide] |  | 6.70 to 7.60
CNC(=O)[C@]1(CC(F)F)CC[C@@H](Nc2ncc3c(Br)nn(-c4cc(CCO)c5ncccc5c4)c3n2)C1 [(1R,3R)-3-[[3-bromo-1-[8-(2-hydroxyethyl)-6-quinolyl]pyrazolo[3,4-d]pyrimidin-6-yl]amino]-1-(2,2-difluoroethyl)-N-methyl-cyclo-pentanecarboxamide] | 6.70 to 7.60 | 

Next, values leading:

pIC50 [1] | pIC50 [2] | Structure (SMILES)
 | 6.70 to 7.60 | CNC(=O)[C@@H]1CC[C@@H](Nc2ncc3c(Br)nn(-c4cc(F)c5ncccc5c4)c3n2)C1 [Example 8, (1R,3R)-3-((3-bromo-1-(8-fluoroquinolin-6-yl)-1H-pyrazolo[3,4-d]pyrimidin-6-yl)amino)-N-methylcyclopentane-1-carboxamide]
6.70 to 7.60 |  | CNC(=O)[C@@]1(COC)CC[C@@H](Nc2ncc3c(I)nn(-c4cc(F)c5ncccc5c4)c3n2)C1 [(1S,3R)-3-[[1-(8-fluoro-6-quinolyl)-3-iodo-pyrazolo[3,4-d]pyrimidin-6-yl]amino]-1-(methoxymethyl)-N-methyl-cyclopentane-carboxamide]
6.70 to 7.60 |  | CNC(=O)[C@]1(C)CC[C@@H](Nc2ncc3c(Br)nn(-c4cc(CCN)c5nccnc5c4)c3n2)C1 [(1R,3R)-3-[[1-[8-(2-aminoethyl)quinoxalin-6-yl]-3-bromo-pyrazolo[3,4-d]pyrimidin-6-yl]amino]-N,1-dimethyl-cyclopentane-carboxamide]
6.70 to 7.60 |  | O=C(N[C@@H]1CCNC[C@H]1F)[C@@H]1CC[C@@H](Nc2ncc3c(Br)nn(-c4cc(F)c5ncccc5c4)c3n2)C1 [(1R,3R)-3-((3-bromo-1-(8-fluoroquinolin-6-yl)-1H-pyrazolo[3,4-d]pyrimidin-6-yl)amino)-N-((3R,4R)-3-fluoropiperidin-4-yl)cyclo-pentane-1-carboxamide]
6.30 to 6.70 |  | CS(=O)(=O)CCNC(=O)[C@@H]1CC[C@@H](Nc2ncc3c(Br)nn(-c4ccc5nccnc5c4)c3n2)C1 [(1R,3R)-3-((3-bromo-1-(quinoxalin-6-yl)-1H-pyrazolo[3,4-d]pyrimidin-6-yl)amino)-N-(2-(methylsulfonyl)ethyl)cyclopentane-1-carboxamide]
6.70 to 7.60 |  | CN1CCN(C(=O)[C@@H]2CC[C@@H](Nc3ncc4c(Br)nn(-c5cc(F)c6ncccc6c5)c4n3)C2)CC1=O [4-((1R,3R)-3-((3-bromo-1-(8-fluoroquinolin-6-yl)-1H-pyrazolo[3,4-d]pyrimidin-6-yl)amino)cyclopentane-1-carbonyl)-1-methyl-piperazin-2-one]
> 7.60 |  | CN(CC(C)(C)O)C(=O)[C@]1(C)CC[C@@H](Nc2ncc3c(Br)nn(-c4cc(F)c5ncccc5c4)c3n2)C1 [(1R,3R)-3-[[3-bromo-1-(8-fluoro-6-quinolyl)pyrazolo[3,4-d]pyrimidin-6-yl]amino]-N-(2-hydroxy-2-methyl-propyl)-N,1-dimethyl-cyclopentanecarboxamide]
> 7.60 |  | CC[C@@]1(C(=O)NC)CC[C@@H](Nc2ncc3c(I)nn(-c4cc(F)c5ncccc5c4)c3n2)C1 [(1R,3R)-1-ethyl-3-[[1-(8-fluoro-6-quinolyl)-3-iodo-pyrazolo[3,4-d]pyrimidin-6-yl]amino]-N-methyl-cyclopentanecarboxamide]
> 7.60 |  | CNC(=O)[C@]1(C)CC[C@@H](Nc2ncc3c(Br)nn(-c4cc(CO)c5ncccc5c4)c3n2)C1 [(1R,3R)-3-[[3-bromo-1-[8-(hydroxy-methyl)-6-quinolyl]pyrazolo[3,4-d]pyrimidin-6-yl]amino]-N,1-dimethyl-cyclopentanecarboxamide]
